Source: patent US5401490A, “Markers of tissue hypoxia” (priority 1989, dated 1995)
Like-named read-outs stand apart in the source and are kept apart here.

Assay: Tissue distribution of radioactivity after intravenous injection
Assay type: in vivo, BALB/C mice
Conditions: mouse, iv, i.v.; for tissue uptake at 0.5 h: 0.50 h
Text: Tables 1 and 2 show the percent of injected IAZG and IAZA respectively per gram of wet tissue for selected tissues excised from BALB/C mice bearing EMT-6 tumors. This tumor model is known to have a high hypoxic fraction (0.33) (16). […] Hepatobiliary excretion may play a role in blood clearance as evidenced by elevated liver radioactivity and the appearance of activity in the intestine. Some oxidative or reductive metabolites of the 2-nitroimidazoles may also become bound to liver tissue, as was postulated in an in vivo study with ^14 C-MISO (6). This supposition is supported by the persistence of liver radioactivity at longer time periods. […] At 8 and 24 hours thyroid levels of IAZG are 7.2 and 30.9% of the total body activity and for IAZA they are 7.9 and 33.8% of total body activity. EXAMPLE 11 TISSUE DISTRIBUTION AND EXCRETION Tumor propagation of EMT-6 tumors in BALB/C mice was accomplished by subcutaneous injection of a cell suspension (10^5 cells in 0.1 mL) as described previously (10). Tumors reached about 10 mm in diameter (≈0.5 g) at 12 to 14 days, at which time each animal was given a bolus intravenous injection of ^125 I-labelled test drug via the tail vein (40 to 60 kBq in 0.1 mL). At set time periods the animals were asphyxiated with CO2 and exsanguinated via cardiac puncture. Tissues were dissected, weighed wet into vials and counted for ^125 I-activity. Whole-body activity was determined by summation of total activity in tissues and in residual carcass, and blood activity was determined from the blood aliquot, assuming blood to be 6.5% of the total body weight. EXAMPLE 12 Male BALB/c mice (20-25 g) were inoculated subcutaneously in the left flank with a suspension of murine EMT-6 cells (10^5 cells in 0.1 mL) (14). After 12 to 14 days, when the tumors reached the desired size (8-10 mm diameter), each mouse received a single intravenous (iv) injection of ^125 I-IAZA (59 kBq in 0.1 mL). […] Heart, lung, liver, spleen, muscle, bone, thyroid, kidney, stomach, small intestine, tail, tumor and skin were removed upon necropsy, weighed and analyzed for ^125 I using a Beckman Model 8000 gamma scintillation counter. The remaining carcass mass was also weighed and radioassayed.

[1] = blood, read-out: Percent of Injected Dose per Gram, Blood
[2] = intestine, read-out: Percent of Injected Dose per Gram, Intestine
[3] = kidney, read-out: Percent of Injected Dose per Gram, Kidney
[4] = liver, read-out: Percent of Injected Dose per Gram, Liver
[5] = lung, read-out: Percent of Injected Dose per Gram, Lung
[6] = muscle, read-out: Percent of Injected Dose per Gram, Muscle
[7] = stomach, read-out: Percent of Injected Dose per Gram, Stomach
[8] = tumor, read-out: Percent of Injected Dose per Gram, Tumor

Work on `O=[N+]([O-])c1nccn1[C@@H]1O[C@H](CI)[C@H](O)[C@H](O)[C@H]1O` [IAZG, 1-(6-iodo-6-deoxy-β-D-galactopyranosyl)-2-nitroimidazole] yielded a tissue uptake at 0.25 h [1] of 1.83 ± 0.17 %ID/g, a tissue uptake at 0.5 h [1] of 1.11 ± 0.16 %ID/g and a tissue uptake at 1 h [1] of 0.86 ± 0.26 %ID/g. It also gave a tissue uptake at 2 h [1] of 0.53 ± 0.1 %ID/g, a tissue uptake at 4 h [1] of 0.28 ± 0.07 %ID/g and a tissue uptake at 8 h [1] of 0.16 ± 0.03 %ID/g. The tissue uptake at 24 h [1] was 0.06 ± 0.02 %ID/g, the tissue uptake at 0.25 h [2] was 6.82 ± 5.2 %ID/g and the tissue uptake at 0.5 h [2] was 3.65 ± 1.36 %ID/g. It also gave a tissue uptake at 1 h [2] of 1.16 ± 0.25 %ID/g, a tissue uptake at 2 h [2] of 0.82 ± 0.45 %ID/g and a tissue uptake at 4 h [2] of 0.29 ± 0.07 %ID/g. The tissue uptake at 8 h [2] was 0.17 ± 0.08 %ID/g, the tissue uptake at 24 h [2] was 0.05 ± 0.02 %ID/g and the tissue uptake at 0.25 h [3] was 15.6 ± 1.15 %ID/g. For the same compound, the tissue uptake at 0.5 h [3] was 8.94 ± 1.2 %ID/g, the tissue uptake at 1 h [3] was 4.56 ± 1.41 %ID/g and the tissue uptake at 2 h [3] was 2.67 ± 0.51 %ID/g. For the same compound, the tissue uptake at 4 h [3] was 1.1 ± 0.29 %ID/g, the tissue uptake at 8 h [3] was 0.4 ± 0.02 %ID/g and the tissue uptake at 24 h [3] was 0.09 ± 0.03 %ID/g. For the same compound, the tissue uptake at 0.25 h [4] was 5.5 ± 0.79 %ID/g, the tissue uptake at 0.5 h [4] was 2.96 ± 0.49 %ID/g and the tissue uptake at 1 h [4] was 1.48 ± 0.24 %ID/g. The tissue uptake at 2 h [4] was 1.4 ± 0.56 %ID/g, the tissue uptake at 4 h [4] was 0.43 ± 0.12 %ID/g and the tissue uptake at 8 h [4] was 0.2 ± 0.02 %ID/g. It also gave a tissue uptake at 24 h [4] of 0.08 ± 0.02 %ID/g, a tissue uptake at 0.25 h [5] of 2.77 ± 0.44 %ID/g and a tissue uptake at 0.5 h [5] of 1.46 ± 0.24 %ID/g. It also gave a tissue uptake at 1 h [5] of 0.74 ± 0.12 %ID/g, a tissue uptake at 2 h [5] of 0.61 ± 0.17 %ID/g and a tissue uptake at 4 h [5] of 0.33 ± 0.09 %ID/g. For the same compound, the tissue uptake at 8 h [5] was 0.16 ± 0.02 %ID/g, the tissue uptake at 24 h [5] was 0.07 ± 0.01 %ID/g and the tissue uptake at 0.25 h [6] was 1.31 ± 0.21 %ID/g. The tissue uptake at 0.5 h [6] was 0.7 ± 0.18 %ID/g, the tissue uptake at 1 h [6] was 0.37 ± 0.19 %ID/g and the tissue uptake at 2 h [6] was 0.34 ± 0.2 %ID/g. It also gave a tissue uptake at 4 h [6] of 0.14 ± 0.03 %ID/g, a tissue uptake at 8 h [6] of 0.06 ± 0.02 %ID/g and a tissue uptake at 24 h [6] of 0.02 ± 0.01 %ID/g. The tissue uptake at 0.25 h [7] was 3.29 ± 1.07 %ID/g, the tissue uptake at 0.5 h [7] was 2.14 ± 1.01 %ID/g and the tissue uptake at 1 h [7] was 1.38 ± 0.42 %ID/g. For the same compound, the tissue uptake at 2 h [7] was 1.49 ± 1.12 %ID/g, the tissue uptake at 4 h [7] was 0.55 ± 0.3 %ID/g and the tissue uptake at 8 h [7] was 0.42 ± 0.35 %ID/g. The tissue uptake at 24 h [7] was 0.06 ± 0.04 %ID/g, the tissue uptake at 0.25 h [8] was 1.75 ± 0.46 %ID/g and the tissue uptake at 0.5 h [8] was 1.45 ± 0.24 %ID/g. For the same compound, the tissue uptake at 1 h [8] was 1.21 ± 0.21 %ID/g, the tissue uptake at 2 h [8] was 0.77 ± 0.17 %ID/g and the tissue uptake at 4 h [8] was 0.43 ± 0.09 %ID/g. It also gave a tissue uptake at 8 h [8] of 0.23 ± 0.09 %ID/g and a tissue uptake at 24 h [8] of 0.08 ± 0.01 %ID/g.
